In patent US20070105960A1, “Treatment of learning disabilities and motor skills disorder with norepinephrine reuptake inhibitors” (ELI LILLY AND COMPANY, priority 2003, published 2007):
“Also recorded” adds a separate entry of the source.

Columns and labels:
[1] = test system: rats; assay: Object recognition test; format: in vivo, rat; conditions: three hour delay, 60 minutes pre-treatment, FIG. 2
Description: (§1) The effects of atomoxetine on learning and memory in rats are evaluated in two different animal models. In an 8-arm radial maze delayed non-match to sample (DNMTS) task, well-trained rats recall where they received rewards during an information phase in order to obtain the remaining rewards during a retention phase conducted after a delay of several hours. Performance in this task is influenced by the administration of putative amnesics and cognitive enhancers (Staubli U, Rogers G, Lynch G (1994) Facilitation of glutamate receptors enhances memory. Proc Natl Acad Sci USA 91: 777-781; Pilcher J J, Sessions G R, McBride S A (1997) Scopolamine impairs spatial working memory in the radial maze: an analysis by error type and arm choice. Pharmacol Biochem Behav 58: 449-459; Pussinen R, Sirvio J (1999) Effects of D-cycloserine, a positive modulator of N-methyl-D-aspartate receptors, and ST 587, a putative alpha-1 adrenergic agonist, individually and in combination, on the non-delayed and delayed foraging behaviour of rats assessed in the radial arm maze. […]
During the testing phase of the experiment, rats are administered appropriate vehicle or drug (N=9/dose) and placed back in their home cage for the pre-treatment period (60 minutes). […] The time spent sniffing (nose <2.5 cm from the object), gnawing, or touching the objects with the front paws is recorded. […]

[2] = test system: rats; assay: 8-arm radial maze delayed non-match to sample task; format: in vivo, rat; conditions: FIG. 1
Description: as §1, with “maze. J Psychopharinacol 13:171-179; Wolff M. C., Leander, J. David (2003) A comparison of the effects of antipsychotics on a delayed radial maze task in the rat. Psychopharmacolology 168:410-416).” for “maze.”

Q: For `CNCC[C@@H](Oc1ccccc1C)c1ccccc1` [atomoxetine, (R)-(−)-N-methyl-3-(2-methyl-phenoxy)-3-phenylpropylamine], which object recognition [1] is on record?
A: Its object recognition is “improves object recognition; also recorded: improvement of object recognition”.

Q: And the “errors in the 8 arm radial maze retention paradigm” value [2]?
A: The value was “reduction of errors”.

Q: And the “learning and memory performance in the 8 arm radial maze” value ([2]; oral, 7 hour delay)?
A: The value was “improves learning and memory performance”.
